The results in this text go back to PMC5578373, “Inhibitory Kappa B Kinase α (IKKα) Inhibitors That Recapitulate Their Selectivity in Cells against Isoform-Related Biomarkers” (Journal of Medicinal Chemistry, 2017).

“Also recorded” adds a separate entry of the source. Read-outs that look alike come from different tables or passages of the source.

One assay deals with T1, CHK2(h) (Homo sapiens, UniProt O96017).
T1 construct: purchased Millipore KinaseProfiler
As to the kind of experiment: Millipore Kinase Profiler, single concentration. The conditions noted are these: duplicate assay points, read-out: % residual activity. It counts as biochemical. The source says: (§1) Kinase profiling of compound 48 was outsourced to Millipore, specifically the Kinase Profiler Customer Service for single concentration studies using duplicate assay points.

The target in the next assay is T2, Rsk1(h) (Homo sapiens, UniProt Q15418).
T2 construct: purchased Millipore KinaseProfiler
As to the kind of experiment: Millipore Kinase Profiler, single concentration. In kind it is biochemical. The conditions noted are these: duplicate assay points, read-out: % residual activity.
Text: as §1

A further assay addresses T3, TBK1(h) (Homo sapiens, UniProt Q9UHD2).
T3 construct: purchased Millipore KinaseProfiler
As to the kind of experiment: Millipore Kinase Profiler, single concentration. It counts as biochemical. Conditions: duplicate assay points, read-out: % residual activity.
Text: as §1

The next assay has as its target T4, CDK2/cyclinA(h) (Homo sapiens, UniProt P24941).
T4 construct: purchased Millipore KinaseProfiler
The experiment in a line: Millipore Kinase Profiler, single concentration. In kind it is biochemical. The conditions noted are these: duplicate assay points, read-out: % residual activity.
Text: as §1

A further assay concerns the target T5, ZAP-70(h) (Homo sapiens, UniProt P43403).
T5 construct: purchased Millipore KinaseProfiler
As to the kind of experiment: Millipore Kinase Profiler, single concentration. It counts as biochemical. Conditions: duplicate assay points, read-out: % residual activity.
Text: as §1

Another assay addresses T6, ALK(h) (Homo sapiens, UniProt Q9UM73).
T6 construct: purchased Millipore KinaseProfiler
As to the kind of experiment: Millipore Kinase Profiler, single concentration. The conditions noted are these: duplicate assay points, read-out: % residual activity. It counts as biochemical.
Text: as §1

In a further assay the target is T7, NEK2(h) (Homo sapiens, UniProt P51955).
T7 construct: purchased Millipore KinaseProfiler
The experiment in a line: Millipore Kinase Profiler, single concentration. It counts as biochemical. Conditions: duplicate assay points, read-out: % residual activity.
Text: as §1

In another assay the target is T8, EGFR(h) (Homo sapiens, UniProt P00533).
T8 construct: purchased Millipore KinaseProfiler
The experiment in a line: Millipore Kinase Profiler, single concentration. It counts as biochemical. The conditions noted are these: duplicate assay points, read-out: % residual activity.
Text: as §1

The target of the next assay is T9, ROCK-II(h) (Homo sapiens, UniProt O75116).
T9 construct: purchased Millipore KinaseProfiler
The experiment in a line: Millipore Kinase Profiler, single concentration. It counts as biochemical. Conditions: duplicate assay points, read-out: % residual activity.
Text: as §1

In a further assay the target is T10, PKD2(h) (Homo sapiens, UniProt Q9BZL6).
T10 construct: purchased Millipore KinaseProfiler
As to the kind of experiment: Millipore Kinase Profiler, single concentration. The conditions noted are these: duplicate assay points, read-out: % residual activity. In kind it is biochemical.
Text: as §1

Another assay addresses T11, Fes(h) (Homo sapiens, UniProt P07332).
T11 construct: purchased Millipore KinaseProfiler
The experiment in a line: Millipore Kinase Profiler, single concentration. In kind it is biochemical. The conditions noted are these: duplicate assay points, read-out: % residual activity.
Text: as §1

The test system of assay [1] is IKKα-regulated NF-κB transcriptional activation in IKKβ−/− MEFs. As to the kind of experiment: IL-1β-stimulated NF-κB-luciferase transcriptional activity in IKKβ knockout MEFs. Conditions: maximal concentrations of 50–100 μM. It counts as cell-based, mouse. The procedure: To provide further evidence for cellular activity, mouse embryonic fibroblasts lacking the IKKβ kinase subunit were utilized to investigate the potency of both compounds against agonist-stimulated IKKα-regulated NF-κB transcriptional activation. Cells were infected with an adenovirus encoding an NF-κB-luciferase promoter gene. NF-κB transcriptional activity driven by IKKα was stimulated specifically using IL-1β,[41] and the ability of the compounds to inhibit this response was assessed. […] As IKKα plays a lesser role in the canonical NF-κB cascade,[42] particularly the rapid and transient stimulated degradation of IκBα, selective IKKα inhibitors should not affect TNF-α induced IκBα degradation and p65 phosphorylation.
(§2) U2OS cells were cultured with McCoy’s 5A modified medium and MEF were cultured with DEME medium containing 10% (v/v) FCS and medium was changed every 2 d thereafter until cells became confluent. Cells were incubated at 37 °C in humidified air with 5% CO2 and rendered quiescent by serum deprivation for 24 h prior to stimulation in serum-free medium.
An adenoviral vector encoding NFκB-luciferase (Adv.NFκB-Luc) was purchased from Vector Biolabs (University of Pennsylvania, Philadelphia, US). Large-scale production of high titer recombinant adenovirus was performed by routine methods.[47] IKKβ knockout mouse embryonic fibroblasts (MEFs; kindly provided by Prof. I. Verma, UCSD, USA) were counted when approximately 60–70% confluent in T75 cm^2 flasks and infected with adenovirus up to 300 pfu/cell^–1 for 24 h in 10% DMEM. Cells were then lifted from the flasks and plated into 96-well clear bottom, black luciferase plates and allowed to settle for 24 h before serum starved overnight. Cells were then stimulated with the appropriate agonists for the indicated times and reactions terminated by addition of lysis buffer containing 0.2 mM luciferin substrate. Relative light units (RLU) were measured using a Trilux microbeta counter (luminometer).

Assay [2] deals with IKKα-driven p100 phosphorylation in U2OS cells. As to the kind of experiment: FCS-stimulated p100 phosphorylation (Ser866/870) in U2OS cells, Western blot. It counts as cell-based, human. The conditions noted are these: 1 h pretreatment, FCS (10%) for 4 h, blots quantified, read-out: IC50 for inhibition of p100 phosphorylation. The procedure: (§3) Two IKKβ-dependent readouts were selected to assess selectivity over IKKβ. First, TNFα stimulates IκBα degradation through activation of IKKβ and if IKKβ is inhibited, then a band corresponding to the IκBα protein should be evident by Western analysis. Second, IKKβ phosphorylates p65 on Ser536, which can also be assessed by Western blot analysis. Only at the highest concentration (100 μM) of 48 was IκBα degradation and p65 (Ser536) phosphorylation inhibited (Figure 9b). Even at this high concentration, these effects were not apparent following pretreatment with 47 (Figure 10b).
Figure 9 Effect of compound 48 on (a) FCS-stimulated noncanonical and (b) TNF-α-induced canonical NF-kB activation in U2OS cells. Cells were pretreated with 48 1 h prior to stimulation with FCS (10%) for 4 h or TNF-α (10 ng/mL) for 30 min. Whole cell lysate were prepared, separated by SDS-PAGE, and assessed for (a) inhibition of p100 phosphorylation (Ser866/870) and (b) IkB-α and p-p65 (Ser536) status. […] The results are representative of three independent experiments.
Figure 10 Effect of compound 47 on (a) FCS-stimulated noncanonical and (b) TNF-α-induced canonical NF-kB activation in U2OS cells. Cells were pretreated with 47 1 h prior to stimulation with FCS (10%) for 4 h or TNF-α (10 ng/mL) for 30 min. Whole cell lysate were prepared, separated by SDS-PAGE, and assessed for (a) inhibition of p100 phosphorylation (Ser866/870) and (b) IkB-α and p-p65 (Ser536) status. […] The results are representative of three independent experiments.
as §2
(§4) Whole cell lysates were prepared from U2OS and status of IκBα, p65, p-p65 (Ser536), and p-p100 (Ser 866/870) assessed by Western blotting as described in Mackenzie et al. (2007).[46]
(In general: In western blotting, separated proteins are transferred to a membrane and probed.)

The test system of assay [3] is IKKβ-dependent p65 (Ser536) phosphorylation in U2OS cells. The experiment in a line: TNFα-induced p65 (Ser536) phosphorylation in U2OS cells, Western blot. In kind it is cell-based, human. Conditions: highest concentration 100 μM, TNF-α (10 ng/mL) 30 min. The procedure:
as §3
Figure 9 Effect of compound 48 on (a) FCS-stimulated noncanonical and (b) TNF-α-induced canonical NF-kB activation in U2OS cells. […] Whole cell lysate were prepared, separated by SDS-PAGE, and assessed for (a) inhibition of p100 phosphorylation (Ser866/870) and (b) IkB-α and p-p65 (Ser536) status. […]
Figure 10 Effect of compound 47 on (a) FCS-stimulated noncanonical and (b) TNF-α-induced canonical NF-kB activation in U2OS cells. […] Whole cell lysate were prepared, separated by SDS-PAGE, and assessed for (a) inhibition of p100 phosphorylation (Ser866/870) and (b) IkB-α and p-p65 (Ser536) status. […]
as §4

T5 sequence (P43403 whole entry): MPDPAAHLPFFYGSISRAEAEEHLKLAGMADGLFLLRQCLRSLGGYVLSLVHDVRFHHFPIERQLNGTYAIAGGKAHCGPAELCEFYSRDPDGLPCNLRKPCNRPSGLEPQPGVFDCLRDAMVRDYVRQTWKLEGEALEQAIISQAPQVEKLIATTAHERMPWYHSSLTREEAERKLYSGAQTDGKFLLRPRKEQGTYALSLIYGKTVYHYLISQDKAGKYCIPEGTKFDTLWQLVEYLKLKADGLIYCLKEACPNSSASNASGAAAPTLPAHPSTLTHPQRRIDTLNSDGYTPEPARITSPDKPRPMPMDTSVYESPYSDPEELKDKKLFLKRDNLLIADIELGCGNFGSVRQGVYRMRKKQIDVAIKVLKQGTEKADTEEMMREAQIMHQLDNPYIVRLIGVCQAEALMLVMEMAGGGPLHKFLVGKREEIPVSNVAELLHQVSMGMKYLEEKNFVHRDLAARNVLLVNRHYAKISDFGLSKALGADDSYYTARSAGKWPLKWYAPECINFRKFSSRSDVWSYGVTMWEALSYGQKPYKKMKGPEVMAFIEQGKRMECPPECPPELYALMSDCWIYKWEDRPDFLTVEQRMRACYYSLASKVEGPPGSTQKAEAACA
T3 sequence (Q9UHD2 whole entry): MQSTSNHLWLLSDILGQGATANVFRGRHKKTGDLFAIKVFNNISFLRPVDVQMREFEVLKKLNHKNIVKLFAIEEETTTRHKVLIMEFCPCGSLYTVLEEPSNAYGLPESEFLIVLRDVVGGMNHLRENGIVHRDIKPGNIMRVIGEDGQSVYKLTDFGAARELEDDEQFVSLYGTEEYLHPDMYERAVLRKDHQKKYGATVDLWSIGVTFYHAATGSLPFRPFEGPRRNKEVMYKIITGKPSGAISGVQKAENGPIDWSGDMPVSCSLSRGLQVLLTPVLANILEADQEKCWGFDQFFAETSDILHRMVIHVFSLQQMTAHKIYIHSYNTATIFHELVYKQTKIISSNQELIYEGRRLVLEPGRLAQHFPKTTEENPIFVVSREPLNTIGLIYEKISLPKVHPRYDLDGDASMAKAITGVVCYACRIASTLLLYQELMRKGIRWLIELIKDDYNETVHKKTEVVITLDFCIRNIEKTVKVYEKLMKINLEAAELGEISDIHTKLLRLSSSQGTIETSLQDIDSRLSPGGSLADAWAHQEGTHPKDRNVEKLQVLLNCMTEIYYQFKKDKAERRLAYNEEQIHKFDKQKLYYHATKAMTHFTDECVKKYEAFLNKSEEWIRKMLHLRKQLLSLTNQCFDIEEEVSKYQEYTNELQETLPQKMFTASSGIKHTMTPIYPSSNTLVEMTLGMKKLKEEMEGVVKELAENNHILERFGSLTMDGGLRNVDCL
T2 sequence (Q15418 whole entry): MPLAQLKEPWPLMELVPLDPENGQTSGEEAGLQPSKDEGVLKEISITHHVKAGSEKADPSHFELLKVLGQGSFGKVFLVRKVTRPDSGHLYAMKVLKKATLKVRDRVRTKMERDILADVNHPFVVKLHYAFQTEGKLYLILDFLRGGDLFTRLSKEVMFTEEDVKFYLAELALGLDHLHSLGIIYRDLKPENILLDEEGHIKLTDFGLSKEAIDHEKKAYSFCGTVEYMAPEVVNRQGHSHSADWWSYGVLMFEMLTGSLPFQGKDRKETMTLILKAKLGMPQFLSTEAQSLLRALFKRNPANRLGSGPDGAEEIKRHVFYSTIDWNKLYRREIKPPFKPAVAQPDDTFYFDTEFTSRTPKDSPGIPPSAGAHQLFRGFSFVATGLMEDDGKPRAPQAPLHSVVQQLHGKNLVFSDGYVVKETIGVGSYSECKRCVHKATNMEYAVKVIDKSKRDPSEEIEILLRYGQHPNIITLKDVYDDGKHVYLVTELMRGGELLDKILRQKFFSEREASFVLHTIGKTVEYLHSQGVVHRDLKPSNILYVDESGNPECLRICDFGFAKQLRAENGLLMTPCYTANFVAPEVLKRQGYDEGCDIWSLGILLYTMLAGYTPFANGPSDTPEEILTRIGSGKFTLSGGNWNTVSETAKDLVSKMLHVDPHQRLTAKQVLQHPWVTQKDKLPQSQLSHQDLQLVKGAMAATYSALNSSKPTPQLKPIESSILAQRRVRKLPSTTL
T8 sequence (P00533 25-1210): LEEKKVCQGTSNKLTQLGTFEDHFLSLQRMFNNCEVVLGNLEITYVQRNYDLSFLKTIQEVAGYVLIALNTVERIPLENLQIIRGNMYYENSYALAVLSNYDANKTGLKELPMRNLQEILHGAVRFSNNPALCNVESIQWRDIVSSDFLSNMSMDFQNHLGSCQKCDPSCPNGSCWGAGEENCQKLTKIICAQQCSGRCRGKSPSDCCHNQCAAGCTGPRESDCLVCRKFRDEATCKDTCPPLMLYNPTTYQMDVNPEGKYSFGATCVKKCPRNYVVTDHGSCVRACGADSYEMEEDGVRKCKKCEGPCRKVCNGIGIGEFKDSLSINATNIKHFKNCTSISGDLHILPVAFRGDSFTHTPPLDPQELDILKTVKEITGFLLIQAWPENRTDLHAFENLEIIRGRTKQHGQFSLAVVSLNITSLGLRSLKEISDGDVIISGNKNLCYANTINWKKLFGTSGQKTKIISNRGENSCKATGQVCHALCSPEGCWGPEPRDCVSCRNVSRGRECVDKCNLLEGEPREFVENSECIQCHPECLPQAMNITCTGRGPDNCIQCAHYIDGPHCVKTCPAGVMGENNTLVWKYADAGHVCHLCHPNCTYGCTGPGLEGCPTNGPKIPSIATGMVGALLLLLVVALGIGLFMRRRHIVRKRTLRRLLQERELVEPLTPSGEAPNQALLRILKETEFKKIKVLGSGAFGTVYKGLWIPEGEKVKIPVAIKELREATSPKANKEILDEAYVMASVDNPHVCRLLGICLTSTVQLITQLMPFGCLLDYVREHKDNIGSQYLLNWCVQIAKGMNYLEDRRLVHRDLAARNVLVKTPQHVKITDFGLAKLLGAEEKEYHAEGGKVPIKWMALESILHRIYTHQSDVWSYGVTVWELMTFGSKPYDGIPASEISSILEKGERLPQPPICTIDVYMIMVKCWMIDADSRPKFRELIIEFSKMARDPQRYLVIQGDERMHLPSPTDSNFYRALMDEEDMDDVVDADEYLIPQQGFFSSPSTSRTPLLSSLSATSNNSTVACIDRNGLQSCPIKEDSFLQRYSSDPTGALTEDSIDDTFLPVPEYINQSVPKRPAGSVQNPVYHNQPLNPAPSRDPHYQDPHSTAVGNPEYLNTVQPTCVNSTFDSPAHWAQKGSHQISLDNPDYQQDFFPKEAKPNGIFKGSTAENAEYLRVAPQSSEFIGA
T9 sequence (O75116 whole entry): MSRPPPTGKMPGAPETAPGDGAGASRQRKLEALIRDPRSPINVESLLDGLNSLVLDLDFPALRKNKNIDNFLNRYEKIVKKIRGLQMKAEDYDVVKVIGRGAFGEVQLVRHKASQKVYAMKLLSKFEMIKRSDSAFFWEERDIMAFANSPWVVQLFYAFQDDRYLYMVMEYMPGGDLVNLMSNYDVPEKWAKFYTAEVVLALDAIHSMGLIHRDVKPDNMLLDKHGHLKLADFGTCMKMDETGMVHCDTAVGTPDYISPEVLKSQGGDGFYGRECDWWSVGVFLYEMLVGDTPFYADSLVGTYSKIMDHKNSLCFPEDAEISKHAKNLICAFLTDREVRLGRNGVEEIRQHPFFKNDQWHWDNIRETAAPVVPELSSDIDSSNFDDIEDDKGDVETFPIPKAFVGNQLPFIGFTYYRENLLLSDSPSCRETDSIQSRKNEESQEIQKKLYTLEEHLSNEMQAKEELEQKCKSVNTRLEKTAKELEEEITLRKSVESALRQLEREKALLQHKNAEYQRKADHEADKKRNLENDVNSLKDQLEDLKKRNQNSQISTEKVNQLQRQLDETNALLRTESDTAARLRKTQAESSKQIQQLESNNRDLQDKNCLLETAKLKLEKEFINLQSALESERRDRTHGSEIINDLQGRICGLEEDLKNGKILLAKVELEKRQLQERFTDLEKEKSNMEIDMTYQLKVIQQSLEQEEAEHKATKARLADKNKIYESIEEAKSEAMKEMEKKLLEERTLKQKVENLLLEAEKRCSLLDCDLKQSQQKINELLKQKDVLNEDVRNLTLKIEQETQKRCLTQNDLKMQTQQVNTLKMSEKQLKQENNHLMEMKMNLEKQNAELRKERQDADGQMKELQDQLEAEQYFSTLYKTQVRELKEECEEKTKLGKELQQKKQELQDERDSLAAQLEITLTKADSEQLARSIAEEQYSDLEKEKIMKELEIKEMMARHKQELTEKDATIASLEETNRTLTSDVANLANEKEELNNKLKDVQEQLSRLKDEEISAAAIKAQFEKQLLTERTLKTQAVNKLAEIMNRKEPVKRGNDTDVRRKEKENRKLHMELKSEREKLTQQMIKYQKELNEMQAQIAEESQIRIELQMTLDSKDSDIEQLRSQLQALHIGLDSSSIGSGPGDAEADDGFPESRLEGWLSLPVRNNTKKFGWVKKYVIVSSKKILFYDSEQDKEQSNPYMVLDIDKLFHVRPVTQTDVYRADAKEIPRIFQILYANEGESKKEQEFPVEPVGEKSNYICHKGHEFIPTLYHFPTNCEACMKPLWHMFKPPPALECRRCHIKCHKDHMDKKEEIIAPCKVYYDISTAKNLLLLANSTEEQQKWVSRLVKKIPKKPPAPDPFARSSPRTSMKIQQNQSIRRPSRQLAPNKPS
T7 sequence (P51955 whole entry): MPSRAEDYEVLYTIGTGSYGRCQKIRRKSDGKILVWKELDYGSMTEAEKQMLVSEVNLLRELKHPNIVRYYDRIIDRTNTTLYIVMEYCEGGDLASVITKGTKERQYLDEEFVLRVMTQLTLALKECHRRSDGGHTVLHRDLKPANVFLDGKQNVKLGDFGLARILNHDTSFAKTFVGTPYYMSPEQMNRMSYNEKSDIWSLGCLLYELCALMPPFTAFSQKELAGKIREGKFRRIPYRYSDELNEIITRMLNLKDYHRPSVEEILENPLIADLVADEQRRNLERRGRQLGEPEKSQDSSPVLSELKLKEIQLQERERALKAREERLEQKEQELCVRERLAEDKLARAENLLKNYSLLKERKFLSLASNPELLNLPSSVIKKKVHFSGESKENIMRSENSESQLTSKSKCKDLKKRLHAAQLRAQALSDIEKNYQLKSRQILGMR

In the case of `N#Cc1c[nH]c2nc(N)nc(-c3ccc(S(N)(=O)=O)cc3)c12` [Compound 48, 4-(2-Amino-5-cyano-7H-pyrrolo[2,3-d]pyrimidin-4-yl)benzenesulfonamide], the remaining activity at 10 µM was 17% at CHK2(h); 39% on Rsk1(h); 54% at TBK1(h); 20% at CDK2/cyclinA(h); 138% at ZAP-70(h); 84% at ALK(h). Further, the remaining activity at 10 µM is 96% at NEK2(h); 108% at EGFR(h); 20% at ROCK-II(h); 26% on PKD2(h); 27% at Fes(h). Moreover, in assay [1], the “effect on NF-κB transcriptional activity” value was “abolished transcriptional activity”. Besides, the “% stim” value in [1] (Il-1β+DMSO = 100%) was −40.9 ± 4.6%. The IC50 in [2] came to 5.8 µM; in [2] (Homo sapiens, U2OS) it was 8.8 µM. The “inhibition of TNFα-stimulated p65 (Ser536) phosphorylation” value in assay [3] is given as “inhibited; also recorded: small effect”.

As a reminder, the IC50 is the point on the concentration scale where inhibition reaches its midpoint.
